Activity calls are given as the source filed them.
What was measured:
cells = assay type: functional
[1] = THP-1 cell cytotoxicity, dose response, cytotoxicity control for non-replicating M. tuberculosis project (AID 489025); assay type: functional
[2] = target: T1, Type-1 angiotensin II receptor (Homo sapiens, UniProt P30556); assay: AT1 receptor agonists, dose response, selectivity assay for APJ receptor agonist project, cell-based, uHTS hits (AID 488865); assay type: functional;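 further: beta-arrestin recruitment to AT1 measured by enzyme fragment complementation luminescence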
T1 sequence (P30556 whole entry): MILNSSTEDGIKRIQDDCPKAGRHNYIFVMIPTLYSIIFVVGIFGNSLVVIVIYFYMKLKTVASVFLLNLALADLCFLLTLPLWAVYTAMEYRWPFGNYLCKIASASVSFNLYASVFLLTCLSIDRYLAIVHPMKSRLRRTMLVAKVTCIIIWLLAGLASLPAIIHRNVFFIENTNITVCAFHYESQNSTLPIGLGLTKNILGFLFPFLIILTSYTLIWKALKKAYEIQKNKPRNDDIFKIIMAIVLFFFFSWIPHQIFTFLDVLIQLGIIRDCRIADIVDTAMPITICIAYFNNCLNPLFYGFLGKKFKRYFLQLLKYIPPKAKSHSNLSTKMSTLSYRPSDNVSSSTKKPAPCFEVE

[3] = target: T2, DNA repair and recombination protein RAD54-like (Homo sapiens, UniProt Q92698); assay: inhibitors of human RAD54 branch migration, confirmation, biochemical, fluorescence, cherry-picked samples, dose series (AID 651657); assay type: functional
T2 sequence (Q92698 whole entry): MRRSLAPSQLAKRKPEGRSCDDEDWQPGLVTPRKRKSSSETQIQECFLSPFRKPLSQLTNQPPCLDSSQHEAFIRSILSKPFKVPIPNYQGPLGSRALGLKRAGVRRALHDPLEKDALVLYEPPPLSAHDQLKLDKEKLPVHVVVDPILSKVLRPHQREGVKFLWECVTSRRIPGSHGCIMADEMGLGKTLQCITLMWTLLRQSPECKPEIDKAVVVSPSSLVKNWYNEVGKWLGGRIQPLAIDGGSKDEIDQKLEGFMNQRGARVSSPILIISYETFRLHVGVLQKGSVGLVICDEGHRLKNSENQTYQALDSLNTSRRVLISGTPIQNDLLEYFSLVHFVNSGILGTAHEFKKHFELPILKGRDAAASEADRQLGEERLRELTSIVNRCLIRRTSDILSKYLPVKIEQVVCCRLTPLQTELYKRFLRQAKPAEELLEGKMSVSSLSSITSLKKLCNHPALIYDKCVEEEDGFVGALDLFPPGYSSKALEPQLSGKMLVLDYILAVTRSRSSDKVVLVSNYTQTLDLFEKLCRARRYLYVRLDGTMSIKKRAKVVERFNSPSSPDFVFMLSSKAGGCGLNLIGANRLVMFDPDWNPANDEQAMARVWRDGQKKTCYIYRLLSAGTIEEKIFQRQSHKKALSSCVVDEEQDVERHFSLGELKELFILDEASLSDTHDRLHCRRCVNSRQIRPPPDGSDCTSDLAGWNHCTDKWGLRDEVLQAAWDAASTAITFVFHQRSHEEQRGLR

H9c2 = assay: cells; assay type: functional, cell-based; settings: Rattus norvegicus, H9c2, Myocardium;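 further: confirmatory concentration-response retest of ultra-high-throughput screening hits for modulation of myocardial damage; cell death induced by hydrogen peroxide oxidative stress; compound pretreatment for 60 min then peroxide exposure for 2 h; potency is for protecting the cells against peroxide damage rather than for killing them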
Integrin alpha-L = Integrin alpha-L (Mus musculus, UniProt P24063); assay: modulators of CD8 T cell-vesicle binding, dose response, powder samples, mouse 2C CD8+ cells (AID 504565); assay type: functional
[4] = target: T3, Short transient receptor potential channel 4 (Mus musculus, UniProt Q9QUQ5); assay: mouse TRPC4 channel activators, dose response, cell-based, HEK293 TRPC4/mu-opioid, Fluo-4 calcium (AID 434937); assay type: functional
T3 sequence (Q9QUQ5 whole entry): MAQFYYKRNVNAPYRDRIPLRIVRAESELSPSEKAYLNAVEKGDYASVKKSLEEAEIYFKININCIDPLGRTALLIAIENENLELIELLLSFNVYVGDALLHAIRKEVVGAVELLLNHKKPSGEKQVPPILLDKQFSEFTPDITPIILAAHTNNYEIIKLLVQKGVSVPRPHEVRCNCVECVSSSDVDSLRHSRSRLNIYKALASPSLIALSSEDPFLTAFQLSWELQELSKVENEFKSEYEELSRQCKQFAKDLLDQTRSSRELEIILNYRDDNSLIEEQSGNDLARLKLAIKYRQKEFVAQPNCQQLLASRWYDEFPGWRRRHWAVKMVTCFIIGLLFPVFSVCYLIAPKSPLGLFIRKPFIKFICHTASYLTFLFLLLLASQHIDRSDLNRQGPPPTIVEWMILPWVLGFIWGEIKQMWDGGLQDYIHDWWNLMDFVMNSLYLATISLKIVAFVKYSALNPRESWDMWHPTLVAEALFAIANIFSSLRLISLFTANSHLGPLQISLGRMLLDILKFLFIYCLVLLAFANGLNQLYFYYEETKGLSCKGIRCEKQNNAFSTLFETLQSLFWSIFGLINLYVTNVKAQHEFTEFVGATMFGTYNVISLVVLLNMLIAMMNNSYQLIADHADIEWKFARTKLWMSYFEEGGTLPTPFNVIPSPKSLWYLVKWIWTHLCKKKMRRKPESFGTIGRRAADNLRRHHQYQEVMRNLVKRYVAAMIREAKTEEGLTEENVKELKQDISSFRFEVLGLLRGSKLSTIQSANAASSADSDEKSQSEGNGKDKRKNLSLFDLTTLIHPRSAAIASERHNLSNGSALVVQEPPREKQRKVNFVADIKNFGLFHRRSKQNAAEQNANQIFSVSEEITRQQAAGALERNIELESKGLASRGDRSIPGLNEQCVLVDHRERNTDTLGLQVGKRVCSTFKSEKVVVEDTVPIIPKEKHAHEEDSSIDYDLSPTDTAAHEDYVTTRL

Cytochrome P450 2C9 = Cytochrome P450 2C9 (Homo sapiens, UniProt P11712); settings: Potency
Large T antigen = Large T antigen (Simian virus 40, UniProt P03070); assay type: functional, Betapolyomavirus macacae;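 further: Confirmatory-stage PubChem screen for compounds that inhibit SV40 T antigen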
[5] = target: T4, Voltage-gated N-type calcium channel alpha-1B subunit/Amyloid beta A4 precursor protein-binding family A member 1 (Homo sapiens, UniProt Q00975+Q02410); assay type: protein assay
[6] = target: T4, Voltage-gated N-type calcium channel alpha-1B subunit/Amyloid beta A4 precursor protein-binding family A member 1; assay type: protein assay; remark: listed apart in the source
[7] = target: Eukaryotic translation initiation factor 4E (Mus musculus, UniProt P63073); assay: eIF4E–eIF4G protein interaction inhibitors, dose response, biochemical, TR-FRET (AID 855); assay type: functional;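 further: potency for disrupting eIF4E binding to eIF4GI seen as loss of FRET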
[8] = THP-1 cell cytotoxicity, dose response, cytotoxicity control for Vif-APOBEC3G degradation inhibitor project, THP-1 cells (AID 1117359); assay type: functional; settings: Human immunodeficiency virus 1, THP-1
Trypsin = Trypsin (Sus scrofa, UniProt P00761); assay: porcine trypsin inhibitors, dose response, selectivity assay for Rce1 protease inhibitor project, biochemical, quenched peptide fluorescence, cherry-pick (AID 488789)
[9] = target: T5, Kappa-type opioid receptor (Homo sapiens, UniProt P41145); assay type: functional
[10] = target: T6, C-C chemokine receptor type 6 (Homo sapiens, UniProt P51684); assay: CCR6 receptor antagonists, dose response, cell-based, luminescent beta-arrestin readout (AID 504728); assay type: functional
T6 sequence (P51684 whole entry): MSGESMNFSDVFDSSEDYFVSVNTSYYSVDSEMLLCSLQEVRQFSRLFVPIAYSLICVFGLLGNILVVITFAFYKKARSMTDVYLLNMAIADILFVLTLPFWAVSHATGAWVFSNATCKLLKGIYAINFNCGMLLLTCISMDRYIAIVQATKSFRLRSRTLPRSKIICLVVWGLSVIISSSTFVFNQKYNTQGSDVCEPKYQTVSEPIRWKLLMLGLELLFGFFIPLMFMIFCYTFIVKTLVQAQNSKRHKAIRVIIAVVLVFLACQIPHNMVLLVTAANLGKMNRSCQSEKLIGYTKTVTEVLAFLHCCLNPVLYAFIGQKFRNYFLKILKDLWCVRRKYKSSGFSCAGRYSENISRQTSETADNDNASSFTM

[11] = target: T7, Polyadenylate-binding protein 1 (Homo sapiens, UniProt P11940); assay: PABP1 MLLE–PAM2 binding inhibitor potency, dose response, biochemical, fluorescence polarization, FITC-PAM2 peptide (AID 602259); assay type: functional; settings: read-out: IC50_Mean
Beta-galactosidase [12] = target: T8, Beta-galactosidase (Escherichia coli, UniProt Q8VNN2); assay type: functional
[13] = target: T5, Kappa-type opioid receptor; assay type: functional; remark: listed apart in the source
Beta-galactosidase [14] = target: T8, Beta-galactosidase; assay: beta-galactosidase enzyme inhibitors and activators, dose response, artefact control for CCR6 antagonist project, biochemical, E. coli enzyme, set 3 (AID 504712); assay type: functional
[15] = target: T7, Polyadenylate-binding protein 1; assay: PABP1 MLLE–PAM2 interaction inhibitors, dose response, miRNA deadenylation inhibitor project, biochemical, fluorescence polarization, Cy5-PAM2 peptide, secondary (AID 602260); assay type: functional; settings: read-out: IC50_Mean

T5 sequence (P41145 whole entry): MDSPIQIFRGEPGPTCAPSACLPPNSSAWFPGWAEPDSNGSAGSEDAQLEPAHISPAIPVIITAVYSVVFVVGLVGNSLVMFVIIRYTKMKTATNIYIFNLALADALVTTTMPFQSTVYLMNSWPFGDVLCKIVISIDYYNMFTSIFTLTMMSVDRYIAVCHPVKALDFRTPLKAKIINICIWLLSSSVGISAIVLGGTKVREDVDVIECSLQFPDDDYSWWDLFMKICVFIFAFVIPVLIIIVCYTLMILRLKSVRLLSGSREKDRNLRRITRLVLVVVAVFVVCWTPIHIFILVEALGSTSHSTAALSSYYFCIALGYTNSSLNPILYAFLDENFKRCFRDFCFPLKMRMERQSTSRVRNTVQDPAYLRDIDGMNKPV
T7 sequence (P11940 whole entry): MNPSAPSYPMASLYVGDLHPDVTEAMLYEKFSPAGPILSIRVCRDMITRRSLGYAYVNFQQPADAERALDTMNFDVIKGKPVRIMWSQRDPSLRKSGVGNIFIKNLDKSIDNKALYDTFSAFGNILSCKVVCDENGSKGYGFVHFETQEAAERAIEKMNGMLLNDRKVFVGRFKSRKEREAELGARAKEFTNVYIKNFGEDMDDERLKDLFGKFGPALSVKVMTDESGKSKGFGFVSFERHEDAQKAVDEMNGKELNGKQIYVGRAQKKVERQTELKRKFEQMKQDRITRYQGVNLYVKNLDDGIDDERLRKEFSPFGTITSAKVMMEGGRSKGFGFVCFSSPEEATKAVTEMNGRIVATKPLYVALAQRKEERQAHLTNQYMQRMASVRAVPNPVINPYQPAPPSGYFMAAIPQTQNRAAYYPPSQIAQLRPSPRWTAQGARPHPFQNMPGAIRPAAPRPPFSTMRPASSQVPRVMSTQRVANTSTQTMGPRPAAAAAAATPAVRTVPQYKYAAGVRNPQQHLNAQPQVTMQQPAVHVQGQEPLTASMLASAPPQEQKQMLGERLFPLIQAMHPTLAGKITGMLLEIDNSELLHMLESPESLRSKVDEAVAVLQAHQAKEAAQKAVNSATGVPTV
T4 sequence (Q00975 whole entry): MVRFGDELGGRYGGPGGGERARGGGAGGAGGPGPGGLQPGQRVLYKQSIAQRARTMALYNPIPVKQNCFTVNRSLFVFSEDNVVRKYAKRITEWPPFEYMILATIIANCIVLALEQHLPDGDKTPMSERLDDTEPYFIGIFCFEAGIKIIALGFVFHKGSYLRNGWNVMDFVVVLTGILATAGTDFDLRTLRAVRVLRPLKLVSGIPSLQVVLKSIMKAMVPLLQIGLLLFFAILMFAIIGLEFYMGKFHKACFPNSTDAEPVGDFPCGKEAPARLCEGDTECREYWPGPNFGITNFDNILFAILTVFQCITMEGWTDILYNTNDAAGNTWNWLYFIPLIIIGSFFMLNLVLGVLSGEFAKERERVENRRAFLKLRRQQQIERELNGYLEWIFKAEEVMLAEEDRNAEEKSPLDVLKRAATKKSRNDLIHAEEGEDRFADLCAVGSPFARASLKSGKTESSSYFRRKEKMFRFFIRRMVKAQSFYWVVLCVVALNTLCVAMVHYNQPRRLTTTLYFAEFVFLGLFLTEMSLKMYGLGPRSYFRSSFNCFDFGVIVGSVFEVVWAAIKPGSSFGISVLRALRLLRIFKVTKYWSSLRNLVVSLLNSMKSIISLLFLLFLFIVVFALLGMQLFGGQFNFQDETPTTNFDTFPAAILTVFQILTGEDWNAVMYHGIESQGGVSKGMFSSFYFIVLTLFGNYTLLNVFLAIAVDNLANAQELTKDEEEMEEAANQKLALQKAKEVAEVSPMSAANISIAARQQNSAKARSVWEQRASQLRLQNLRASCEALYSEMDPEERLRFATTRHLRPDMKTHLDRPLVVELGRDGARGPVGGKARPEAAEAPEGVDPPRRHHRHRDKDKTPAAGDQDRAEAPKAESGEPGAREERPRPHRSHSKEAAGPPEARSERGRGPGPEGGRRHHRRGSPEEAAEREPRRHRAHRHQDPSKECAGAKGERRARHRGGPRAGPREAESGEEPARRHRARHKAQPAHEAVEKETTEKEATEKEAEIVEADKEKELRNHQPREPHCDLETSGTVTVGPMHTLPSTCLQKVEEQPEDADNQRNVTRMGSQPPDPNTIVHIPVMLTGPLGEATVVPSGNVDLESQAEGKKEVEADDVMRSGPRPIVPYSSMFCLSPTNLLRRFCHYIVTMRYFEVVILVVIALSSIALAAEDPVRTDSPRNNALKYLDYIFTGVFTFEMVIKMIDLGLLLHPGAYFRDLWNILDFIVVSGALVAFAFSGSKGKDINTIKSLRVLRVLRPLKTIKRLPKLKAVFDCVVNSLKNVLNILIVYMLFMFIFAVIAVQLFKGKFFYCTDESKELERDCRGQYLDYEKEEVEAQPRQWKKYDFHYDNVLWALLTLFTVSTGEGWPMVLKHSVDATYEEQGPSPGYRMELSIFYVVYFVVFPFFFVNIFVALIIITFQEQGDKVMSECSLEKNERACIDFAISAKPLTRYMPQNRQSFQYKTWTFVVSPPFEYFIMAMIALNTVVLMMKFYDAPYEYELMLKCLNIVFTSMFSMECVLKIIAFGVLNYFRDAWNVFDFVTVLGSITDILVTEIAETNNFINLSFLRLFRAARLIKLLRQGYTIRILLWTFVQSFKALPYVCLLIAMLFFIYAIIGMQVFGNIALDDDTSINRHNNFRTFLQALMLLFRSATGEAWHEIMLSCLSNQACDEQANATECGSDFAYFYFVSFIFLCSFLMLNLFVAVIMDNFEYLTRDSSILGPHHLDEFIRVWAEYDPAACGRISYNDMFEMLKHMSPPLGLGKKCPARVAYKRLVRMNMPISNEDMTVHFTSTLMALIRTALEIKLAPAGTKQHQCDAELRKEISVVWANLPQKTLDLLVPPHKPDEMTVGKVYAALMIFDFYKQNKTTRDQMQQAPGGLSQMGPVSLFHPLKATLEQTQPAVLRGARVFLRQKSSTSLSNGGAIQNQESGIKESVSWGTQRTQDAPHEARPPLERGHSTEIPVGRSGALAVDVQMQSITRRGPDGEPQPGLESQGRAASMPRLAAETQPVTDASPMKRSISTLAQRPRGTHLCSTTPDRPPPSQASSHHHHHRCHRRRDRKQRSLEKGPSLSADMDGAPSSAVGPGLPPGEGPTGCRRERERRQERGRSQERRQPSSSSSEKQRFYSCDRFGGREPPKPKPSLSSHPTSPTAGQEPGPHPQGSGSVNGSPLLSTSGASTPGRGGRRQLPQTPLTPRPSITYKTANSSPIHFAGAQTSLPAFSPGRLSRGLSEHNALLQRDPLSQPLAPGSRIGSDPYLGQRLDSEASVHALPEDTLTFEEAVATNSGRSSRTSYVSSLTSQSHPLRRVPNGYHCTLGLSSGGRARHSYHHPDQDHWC
T4 sequence (Q02410 whole entry): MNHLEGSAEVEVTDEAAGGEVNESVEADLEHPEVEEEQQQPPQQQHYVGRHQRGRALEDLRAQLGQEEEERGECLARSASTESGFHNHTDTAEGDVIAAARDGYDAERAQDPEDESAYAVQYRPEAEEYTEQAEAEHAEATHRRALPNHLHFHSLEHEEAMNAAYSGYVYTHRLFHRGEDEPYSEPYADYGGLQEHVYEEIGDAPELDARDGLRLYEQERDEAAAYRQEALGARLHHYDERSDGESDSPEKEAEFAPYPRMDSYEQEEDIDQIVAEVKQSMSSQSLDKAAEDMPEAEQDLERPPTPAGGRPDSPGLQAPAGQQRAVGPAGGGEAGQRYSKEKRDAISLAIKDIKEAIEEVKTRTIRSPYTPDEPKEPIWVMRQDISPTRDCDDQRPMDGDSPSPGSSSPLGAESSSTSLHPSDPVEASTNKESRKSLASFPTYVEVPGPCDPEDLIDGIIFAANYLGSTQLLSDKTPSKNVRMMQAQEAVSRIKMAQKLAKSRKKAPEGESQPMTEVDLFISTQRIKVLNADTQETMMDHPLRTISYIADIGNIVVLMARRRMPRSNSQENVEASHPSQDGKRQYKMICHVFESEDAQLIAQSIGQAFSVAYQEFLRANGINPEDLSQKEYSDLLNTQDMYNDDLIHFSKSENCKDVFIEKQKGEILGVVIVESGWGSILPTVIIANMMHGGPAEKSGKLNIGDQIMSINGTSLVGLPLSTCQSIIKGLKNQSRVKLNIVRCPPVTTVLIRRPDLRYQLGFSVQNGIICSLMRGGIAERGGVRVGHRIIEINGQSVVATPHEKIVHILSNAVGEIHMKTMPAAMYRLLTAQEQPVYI
Chain of Cytochrome P450 2C9 (P11712 whole entry): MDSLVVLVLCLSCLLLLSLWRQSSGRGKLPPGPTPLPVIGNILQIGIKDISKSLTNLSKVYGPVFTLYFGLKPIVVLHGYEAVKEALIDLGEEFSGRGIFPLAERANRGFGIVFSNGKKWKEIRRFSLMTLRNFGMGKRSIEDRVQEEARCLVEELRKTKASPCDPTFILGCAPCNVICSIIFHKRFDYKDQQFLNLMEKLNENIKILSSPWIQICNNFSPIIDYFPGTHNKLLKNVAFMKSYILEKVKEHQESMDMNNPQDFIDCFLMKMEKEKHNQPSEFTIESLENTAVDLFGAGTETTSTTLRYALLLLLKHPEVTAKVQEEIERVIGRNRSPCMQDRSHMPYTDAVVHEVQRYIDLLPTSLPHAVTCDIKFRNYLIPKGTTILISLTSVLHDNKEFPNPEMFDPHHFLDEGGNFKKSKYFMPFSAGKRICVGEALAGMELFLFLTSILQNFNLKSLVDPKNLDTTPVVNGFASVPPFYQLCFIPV
Chain of Trypsin (P00761 whole entry): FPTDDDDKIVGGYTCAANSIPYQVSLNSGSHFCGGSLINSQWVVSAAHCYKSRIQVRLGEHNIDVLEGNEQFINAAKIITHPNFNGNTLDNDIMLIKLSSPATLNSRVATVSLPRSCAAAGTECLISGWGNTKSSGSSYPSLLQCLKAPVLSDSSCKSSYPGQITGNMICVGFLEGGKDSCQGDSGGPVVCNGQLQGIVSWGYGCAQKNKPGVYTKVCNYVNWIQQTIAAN

O=C(CCS(=O)(=O)c1ccccc1)Nc1nnc(-c2ccco2)o1
IC50 (cells): 48.6 µM (active)
CC50 [1]: > 40 µM (active)

COc1cccc2sc3ccc(NCCC4CCCN4C)cc3c(=O)c12 (configuration not stated)
EC50 [2]: > 100 µM (inactive)
AC50 [3]: 22.8 µM (active)

CCOc1ccc2nc(O)c(CN(CCO)C(c3nnnn3C3CCCCC3)C(C)C)cc2c1 (configuration not stated)
EC50 [2]: > 100 µM (inactive)
IC50 (H9c2): > 79 µM (inactive)

O=C(NCC1CCCCC1)c1ccc(Cl)c(S(=O)(=O)N2CCOCC2)c1
EC50 (Integrin alpha-L): 20.1 µM (active)

Cc1ccc(C)c(CN2CCC(CNC(=O)CCc3nnc4ccc(N5CCCCC5)nn34)CC2)c1
EC50 [4]: 0.299 µM (active)

COc1ccc([C@@H]2OC[C@]3(COC(C)=O)[C@H](C)C=C(C)[C@@H]2[C@H]3C)cc1
AC50 (Cytochrome P450 2C9): 20 µM (inconclusive)

O=C(CSc1nc2ccccc2n1CCc1ccccc1)c1ccc(O)c(O)c1
IC50 (Large T antigen): 35.9 µM (active)
IC50 [5]: 9.4 µM (active)
IC50 [6]: > 50 µM (inactive)
IC50 [7]: 23.7 µM (active)
CC50 [8]: > 40 µM (active)

Nc1c(C(=O)NCc2ccccc2)sc2nc(N3CCOCC3)c3c(c12)CCCC3
AC50 (Trypsin): 14.8 µM (active)

COc1ccc(NC(=S)NC(NC(=O)c2ccccc2Cl)C(Cl)(Cl)Cl)c([N+](=O)[O-])c1 (configuration not stated)
IC50 [9]: 7.41 µM (active)
IC50 [10]: > 66.6 µM (inactive)
IC50 [11]: > 66 µM (inactive)
EC50 (Beta-galactosidase [12]): > 31.5 µM (inactive)
IC50 [13]: 5.11 µM
IC50 (Beta-galactosidase [14]): > 66.6 µM (inactive)
IC50 [15]: > 66 µM (inactive)

Source: ChEMBL document CHEMBL1201862, “PubChem BioAssay data set” (2004)
